Source: ChEMBL document CHEMBL1201862, “PubChem BioAssay data set” (2004)
Counter-ions that a name gives are not always drawn. One block for each compound: values may come before it. Calls of active or inactive are those of the source.

Tests used:
[1] = cells
[2] = target: T1, Oxysterols receptor LXR-beta (Homo sapiens, UniProt P55055); type: functional, cell-based;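 further: Cell-based luminescence dose-response assay of agonist activity at LXR, run as a confirmatory counterscreen to a daf-12 agonist screen; agonist potency from rising luciferase signal of a Gal4-LXR reporter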
T1 sequence (P55055 whole entry): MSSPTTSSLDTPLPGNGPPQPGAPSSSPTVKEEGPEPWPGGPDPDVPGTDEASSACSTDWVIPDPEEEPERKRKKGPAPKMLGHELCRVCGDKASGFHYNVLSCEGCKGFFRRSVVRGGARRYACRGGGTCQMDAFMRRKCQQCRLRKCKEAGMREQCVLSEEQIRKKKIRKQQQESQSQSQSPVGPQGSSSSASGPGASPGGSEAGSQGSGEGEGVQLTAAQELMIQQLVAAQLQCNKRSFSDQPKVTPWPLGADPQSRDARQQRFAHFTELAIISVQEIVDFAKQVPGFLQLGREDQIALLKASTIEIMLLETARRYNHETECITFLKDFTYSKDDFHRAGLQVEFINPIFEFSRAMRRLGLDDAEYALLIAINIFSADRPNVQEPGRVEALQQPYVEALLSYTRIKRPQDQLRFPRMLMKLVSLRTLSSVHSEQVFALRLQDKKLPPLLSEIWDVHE

[3] = target: T2, Aminopeptidase N (Plasmodium falciparum FcB1/Columbia, UniProt O96935); assay: P. falciparum M1AAP inhibitors, biochemical, fluorogenic H-Leu-NHMec substrate, 1536-well (AID 1445); design: species or system Plasmodium falciparum 3D7, 3D7
T2 sequence (O96935 whole entry): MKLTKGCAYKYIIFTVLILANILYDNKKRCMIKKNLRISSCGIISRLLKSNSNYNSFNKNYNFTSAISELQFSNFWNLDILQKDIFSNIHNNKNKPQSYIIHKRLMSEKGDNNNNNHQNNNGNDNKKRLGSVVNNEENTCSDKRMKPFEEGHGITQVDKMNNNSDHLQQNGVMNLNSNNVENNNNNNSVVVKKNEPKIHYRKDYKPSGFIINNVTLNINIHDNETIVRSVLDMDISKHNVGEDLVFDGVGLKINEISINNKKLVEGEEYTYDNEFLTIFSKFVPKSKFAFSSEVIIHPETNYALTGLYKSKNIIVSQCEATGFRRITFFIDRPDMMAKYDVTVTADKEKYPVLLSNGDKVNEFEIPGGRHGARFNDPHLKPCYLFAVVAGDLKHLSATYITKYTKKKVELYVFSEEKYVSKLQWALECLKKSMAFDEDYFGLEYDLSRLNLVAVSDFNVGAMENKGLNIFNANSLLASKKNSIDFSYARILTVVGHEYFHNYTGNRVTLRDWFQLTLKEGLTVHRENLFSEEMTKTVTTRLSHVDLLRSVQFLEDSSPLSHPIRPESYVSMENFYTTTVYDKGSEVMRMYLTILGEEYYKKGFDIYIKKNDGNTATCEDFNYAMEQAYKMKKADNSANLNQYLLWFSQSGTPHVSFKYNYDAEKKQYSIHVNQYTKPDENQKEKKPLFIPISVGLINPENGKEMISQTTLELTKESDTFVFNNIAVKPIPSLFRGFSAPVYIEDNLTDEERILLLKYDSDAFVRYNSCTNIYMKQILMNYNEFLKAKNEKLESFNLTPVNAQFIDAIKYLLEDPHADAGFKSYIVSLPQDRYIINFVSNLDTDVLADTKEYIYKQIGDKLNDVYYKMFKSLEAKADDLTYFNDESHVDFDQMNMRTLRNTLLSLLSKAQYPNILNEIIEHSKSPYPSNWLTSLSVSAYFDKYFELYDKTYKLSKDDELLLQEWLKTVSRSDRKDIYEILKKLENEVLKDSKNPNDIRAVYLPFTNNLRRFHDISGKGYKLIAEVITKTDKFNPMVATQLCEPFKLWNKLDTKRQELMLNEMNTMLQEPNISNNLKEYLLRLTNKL

[4] = Luminescence-based cell-based high throughput dose response assay to identify activators of the DAF-12 from the parasite S. stercoralis (ssDAF-12).; type: functional
[5] = target: T1, Oxysterols receptor LXR-beta; assay: LXR agonists, Gal4 luciferase reporter, dose response, counter-screen for ssDAF-12 agonist project, cell-based, luminescence, HEK293, S. stercoralis campaign (AID 720737); type: functional; details: read-out: IC50 (the source's name)
[6] = target: Voltage-dependent T-type calcium channel subunit alpha-1H (Homo sapiens, UniProt O95180); type: functional;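 further: channel activity triggered by adding a high calcium stimulation buffer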
[7] = inhibitors of Vif binding to APOBEC3G peptide, primary screen, biochemical, TR-FRET, GST-Vif 1-94, biotin-A3G peptide, dose response retest (AID 1117319); type: functional;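 further: TR-FRET signal of purified GST-Vif binding a biotinylated A3G peptide; inhibitors lower the FRET signal by blocking Vif and A3G binding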
[8] = target: Cytochrome P450 3A4 (Homo sapiens, UniProt P08684); details: Potency;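 further: confirmatory qHTS run detecting inhibitors and substrates of CYP3A4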
[9] = target: T3, Leucine aminopeptidase (Plasmodium falciparum 3D7, UniProt Q8IL11); assay: P. falciparum M17LAP inhibitors, primary screen, biochemical, fluorogenic H-Leu-NHMec substrate, 1536-well (AID 1619); type: functional
T3 sequence (Q8IL11 whole entry): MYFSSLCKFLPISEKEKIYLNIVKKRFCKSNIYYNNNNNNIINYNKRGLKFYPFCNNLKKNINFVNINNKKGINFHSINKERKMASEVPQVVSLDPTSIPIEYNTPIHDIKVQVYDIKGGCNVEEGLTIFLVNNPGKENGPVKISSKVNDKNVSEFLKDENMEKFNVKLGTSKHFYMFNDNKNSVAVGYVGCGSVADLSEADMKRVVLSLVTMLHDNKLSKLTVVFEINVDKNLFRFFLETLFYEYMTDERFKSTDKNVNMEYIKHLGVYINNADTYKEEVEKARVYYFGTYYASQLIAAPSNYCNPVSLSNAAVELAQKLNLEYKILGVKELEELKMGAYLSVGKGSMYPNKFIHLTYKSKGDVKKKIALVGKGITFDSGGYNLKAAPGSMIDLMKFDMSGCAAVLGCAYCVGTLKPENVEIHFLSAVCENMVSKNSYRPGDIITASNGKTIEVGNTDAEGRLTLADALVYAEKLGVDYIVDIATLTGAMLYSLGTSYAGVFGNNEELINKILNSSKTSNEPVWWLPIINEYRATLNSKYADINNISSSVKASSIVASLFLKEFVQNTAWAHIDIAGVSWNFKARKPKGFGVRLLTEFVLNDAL

[10] = target: DNA dC->dU-editing enzyme APOBEC-3G (Homo sapiens, UniProt Q9HC16); assay: Dose Response confirmation of small molecule APOBEC3G DNA Deaminase Inhibitors via a fluorescence-based single-stranded DNA deaminase assay. [Related pubchem assays (depositor defined):AID493012, AID493028]; type: functional
[11] = target: T4, Heat shock factor protein 1 (Mus musculus, UniProt P38532); assay: HSF1 potentiators in luciferase reporter cells, confirmation, cell-based, NIH3T3, luminescence, dose retest (AID 435004); type: functional;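 further: stress induced by proteasome inhibitor MG132 added 30 min after compound; luciferase reporter driven by HSF1 response element in NIH3T3 cells; actives raise luminescence as potentiators of the MG132 stress response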
T4 sequence (P38532 whole entry): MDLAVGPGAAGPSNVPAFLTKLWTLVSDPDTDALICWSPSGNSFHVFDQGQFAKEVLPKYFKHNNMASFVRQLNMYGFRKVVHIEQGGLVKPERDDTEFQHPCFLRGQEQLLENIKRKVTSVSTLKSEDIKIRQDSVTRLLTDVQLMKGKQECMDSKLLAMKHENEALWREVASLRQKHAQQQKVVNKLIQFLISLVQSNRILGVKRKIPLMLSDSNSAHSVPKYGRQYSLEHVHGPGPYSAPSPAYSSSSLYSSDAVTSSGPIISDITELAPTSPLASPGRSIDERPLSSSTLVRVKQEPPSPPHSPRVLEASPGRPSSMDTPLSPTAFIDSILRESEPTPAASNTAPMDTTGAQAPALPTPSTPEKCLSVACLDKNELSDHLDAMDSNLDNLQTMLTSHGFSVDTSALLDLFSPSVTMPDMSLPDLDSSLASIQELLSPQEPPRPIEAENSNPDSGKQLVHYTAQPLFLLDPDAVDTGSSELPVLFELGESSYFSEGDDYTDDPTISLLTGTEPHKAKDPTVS

[12] = target: Cytochrome P450 2C9 (Homo sapiens, UniProt P11712)
[13] = target: T4, Heat shock factor protein 1; assay: inhibition of MG132-induced HSE-luciferase signal, confirmation, cell-based, NIH3T3, luminescence, dose retest (AID 2382); type: functional;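 further: NIH3T3 fibroblasts with HSF1-driven luciferase reporter stressed by proteasome inhibitor MG132; luminescence from HSF1-driven luciferase expression after 8 hours of MG132 stress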
[14] = target: Albumin (Bos taurus, UniProt P02769); assay: Counterscreen for inhibitors of T-cell receptor (TCR)-CD3 interaction: Fluorescence-based biochemical high throughput dose response assay to identify inhibitors of T-cell receptor (TCR)-CD3 interaction using a TAMRA-labeled BSA probe.; type: functional
[15] = Luminescence Cell-Based Dose Retest to Confirm Inhibitors of Cancer Stem Cells. [Related pubchem assays (depositor defined):AID2717, AID2721]; type: functional; details: Homo sapiens
[16] = cytotoxicity in KRAS-transformed pancreatic duct cells, primary screen, cell-based, fluorescence, HTS (AID 431); type: functional; details: Homo sapiens;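 further: cell line used: HPDE-C7K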
[17] = cytotoxicity in HPDE-C7 cells, cell-based, fluorescence, HTS (AID 430); type: functional; details: Homo sapiens

Chain of Cytochrome P450 3A4 (P08684 whole entry): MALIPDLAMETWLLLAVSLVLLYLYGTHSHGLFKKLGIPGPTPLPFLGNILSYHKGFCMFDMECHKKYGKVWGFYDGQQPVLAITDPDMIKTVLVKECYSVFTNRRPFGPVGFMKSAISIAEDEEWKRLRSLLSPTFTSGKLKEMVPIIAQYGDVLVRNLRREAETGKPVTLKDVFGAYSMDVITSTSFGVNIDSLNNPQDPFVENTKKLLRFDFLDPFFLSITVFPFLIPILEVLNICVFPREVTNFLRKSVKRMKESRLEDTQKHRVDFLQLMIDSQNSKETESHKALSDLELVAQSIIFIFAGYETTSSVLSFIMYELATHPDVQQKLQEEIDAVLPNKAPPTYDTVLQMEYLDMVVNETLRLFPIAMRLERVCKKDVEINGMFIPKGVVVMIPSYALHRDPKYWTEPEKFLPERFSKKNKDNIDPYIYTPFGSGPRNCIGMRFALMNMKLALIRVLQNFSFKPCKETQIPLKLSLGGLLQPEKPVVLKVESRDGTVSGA
Chain of Voltage-dependent T-type calcium channel subunit alpha-1H (O95180 whole entry): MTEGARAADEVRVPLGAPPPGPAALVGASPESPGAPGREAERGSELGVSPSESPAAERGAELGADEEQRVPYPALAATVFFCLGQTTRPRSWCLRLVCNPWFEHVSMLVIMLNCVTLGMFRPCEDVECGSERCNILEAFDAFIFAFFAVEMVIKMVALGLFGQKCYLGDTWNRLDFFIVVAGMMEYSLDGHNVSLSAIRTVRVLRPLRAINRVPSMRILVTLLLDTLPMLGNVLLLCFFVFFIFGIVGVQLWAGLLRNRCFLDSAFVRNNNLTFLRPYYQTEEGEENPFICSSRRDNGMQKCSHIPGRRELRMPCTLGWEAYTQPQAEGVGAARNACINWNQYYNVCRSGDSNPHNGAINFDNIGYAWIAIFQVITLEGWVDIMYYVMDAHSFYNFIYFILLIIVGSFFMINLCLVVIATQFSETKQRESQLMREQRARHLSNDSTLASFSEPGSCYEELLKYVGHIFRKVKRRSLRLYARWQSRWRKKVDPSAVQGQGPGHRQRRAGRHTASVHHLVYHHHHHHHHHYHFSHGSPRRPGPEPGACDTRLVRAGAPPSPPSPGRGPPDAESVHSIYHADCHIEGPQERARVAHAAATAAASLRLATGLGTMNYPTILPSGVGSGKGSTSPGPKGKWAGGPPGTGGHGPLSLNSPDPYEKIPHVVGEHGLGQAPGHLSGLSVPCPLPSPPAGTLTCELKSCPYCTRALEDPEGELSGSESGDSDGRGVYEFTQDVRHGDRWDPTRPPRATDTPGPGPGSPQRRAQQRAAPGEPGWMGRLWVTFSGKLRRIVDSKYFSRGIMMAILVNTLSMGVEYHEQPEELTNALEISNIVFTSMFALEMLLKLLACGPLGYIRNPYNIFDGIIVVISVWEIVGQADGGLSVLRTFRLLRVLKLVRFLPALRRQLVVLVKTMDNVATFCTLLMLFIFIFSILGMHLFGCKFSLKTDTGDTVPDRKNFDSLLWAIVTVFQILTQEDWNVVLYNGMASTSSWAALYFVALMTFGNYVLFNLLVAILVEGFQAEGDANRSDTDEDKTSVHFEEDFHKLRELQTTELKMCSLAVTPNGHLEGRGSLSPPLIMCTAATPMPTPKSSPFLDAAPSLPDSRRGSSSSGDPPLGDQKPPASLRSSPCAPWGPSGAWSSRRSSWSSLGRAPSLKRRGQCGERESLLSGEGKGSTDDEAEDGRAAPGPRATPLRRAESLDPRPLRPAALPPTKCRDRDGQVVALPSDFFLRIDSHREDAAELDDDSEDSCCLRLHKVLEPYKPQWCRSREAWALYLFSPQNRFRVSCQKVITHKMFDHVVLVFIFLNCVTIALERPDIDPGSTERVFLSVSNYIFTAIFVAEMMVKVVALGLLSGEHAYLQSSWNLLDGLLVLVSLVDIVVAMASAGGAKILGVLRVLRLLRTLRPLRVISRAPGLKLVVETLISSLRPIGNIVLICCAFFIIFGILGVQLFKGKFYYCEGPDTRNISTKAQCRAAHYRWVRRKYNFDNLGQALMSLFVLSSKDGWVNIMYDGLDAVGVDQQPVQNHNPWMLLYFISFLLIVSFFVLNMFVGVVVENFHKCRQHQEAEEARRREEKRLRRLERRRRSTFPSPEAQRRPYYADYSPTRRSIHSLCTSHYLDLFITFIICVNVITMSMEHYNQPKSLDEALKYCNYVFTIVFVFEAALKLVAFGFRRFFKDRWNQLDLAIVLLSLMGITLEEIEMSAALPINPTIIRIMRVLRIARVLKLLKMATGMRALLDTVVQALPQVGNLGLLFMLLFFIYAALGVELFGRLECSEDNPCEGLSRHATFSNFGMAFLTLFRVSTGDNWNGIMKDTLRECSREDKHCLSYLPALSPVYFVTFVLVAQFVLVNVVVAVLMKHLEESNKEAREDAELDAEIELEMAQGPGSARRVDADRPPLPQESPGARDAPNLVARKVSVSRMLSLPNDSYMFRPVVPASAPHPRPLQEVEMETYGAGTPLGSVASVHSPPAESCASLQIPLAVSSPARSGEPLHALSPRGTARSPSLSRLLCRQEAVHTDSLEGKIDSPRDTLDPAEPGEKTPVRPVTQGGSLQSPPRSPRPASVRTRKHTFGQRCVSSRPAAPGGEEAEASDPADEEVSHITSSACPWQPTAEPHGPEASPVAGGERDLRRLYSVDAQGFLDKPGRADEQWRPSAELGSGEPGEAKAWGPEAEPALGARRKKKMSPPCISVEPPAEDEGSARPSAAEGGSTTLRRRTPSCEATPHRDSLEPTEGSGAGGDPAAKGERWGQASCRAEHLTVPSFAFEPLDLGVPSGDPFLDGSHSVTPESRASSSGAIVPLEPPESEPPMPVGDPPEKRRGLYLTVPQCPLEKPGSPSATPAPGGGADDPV
Chain of DNA dC->dU-editing enzyme APOBEC-3G (Q9HC16 whole entry): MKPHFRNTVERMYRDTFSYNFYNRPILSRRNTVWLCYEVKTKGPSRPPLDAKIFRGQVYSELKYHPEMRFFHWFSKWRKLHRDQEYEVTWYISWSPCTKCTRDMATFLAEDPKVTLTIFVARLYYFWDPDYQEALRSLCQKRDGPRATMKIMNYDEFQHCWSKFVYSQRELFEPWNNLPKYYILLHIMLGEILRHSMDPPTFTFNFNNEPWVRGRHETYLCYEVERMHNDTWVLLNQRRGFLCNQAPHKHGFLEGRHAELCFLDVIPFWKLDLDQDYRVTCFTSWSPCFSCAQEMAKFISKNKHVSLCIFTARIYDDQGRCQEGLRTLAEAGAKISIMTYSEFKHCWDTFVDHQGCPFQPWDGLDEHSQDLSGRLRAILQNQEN
Chain of Albumin (P02769 whole entry): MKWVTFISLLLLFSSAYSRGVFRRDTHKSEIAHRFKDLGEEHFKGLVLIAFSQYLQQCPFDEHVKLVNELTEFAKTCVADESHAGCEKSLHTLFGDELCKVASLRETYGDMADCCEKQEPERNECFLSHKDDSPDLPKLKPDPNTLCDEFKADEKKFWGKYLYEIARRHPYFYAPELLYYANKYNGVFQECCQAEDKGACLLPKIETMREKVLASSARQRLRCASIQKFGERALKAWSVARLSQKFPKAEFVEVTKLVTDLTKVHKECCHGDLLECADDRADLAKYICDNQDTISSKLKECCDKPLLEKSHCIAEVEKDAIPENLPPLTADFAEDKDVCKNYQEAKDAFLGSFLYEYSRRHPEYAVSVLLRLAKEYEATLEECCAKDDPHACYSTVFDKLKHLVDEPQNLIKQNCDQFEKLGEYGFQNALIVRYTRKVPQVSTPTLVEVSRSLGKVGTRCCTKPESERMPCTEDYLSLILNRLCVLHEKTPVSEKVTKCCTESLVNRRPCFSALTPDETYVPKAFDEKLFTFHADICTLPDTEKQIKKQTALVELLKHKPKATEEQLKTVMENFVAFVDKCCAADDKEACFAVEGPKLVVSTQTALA
Chain of Cytochrome P450 2C9 (P11712 whole entry): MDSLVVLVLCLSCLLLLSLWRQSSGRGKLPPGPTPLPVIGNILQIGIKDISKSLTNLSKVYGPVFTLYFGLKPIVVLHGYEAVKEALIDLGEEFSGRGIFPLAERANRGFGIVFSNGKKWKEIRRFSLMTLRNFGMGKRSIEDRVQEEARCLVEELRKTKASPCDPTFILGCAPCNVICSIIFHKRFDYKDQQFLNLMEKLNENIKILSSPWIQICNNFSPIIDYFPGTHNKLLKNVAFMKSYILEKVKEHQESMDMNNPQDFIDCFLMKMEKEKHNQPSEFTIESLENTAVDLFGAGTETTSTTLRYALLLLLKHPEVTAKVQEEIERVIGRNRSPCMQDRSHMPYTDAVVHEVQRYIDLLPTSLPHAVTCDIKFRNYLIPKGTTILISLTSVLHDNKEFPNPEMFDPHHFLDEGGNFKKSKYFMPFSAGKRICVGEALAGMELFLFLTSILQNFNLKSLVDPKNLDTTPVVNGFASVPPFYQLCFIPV

SMILES: CC(C)NC1=NN=C(c2cccs2)CS1
EC50 [1]: > 67.6 µM (inactive) | EC50 [2]: > 67.6 µM (inactive)

IC50 [3]: 52.9 µM (active)
SMILES: COc1ccc(OC)c(C2C3=C(O)CCCC3=NC(C)=C2C(=O)Nc2cccnc2)c1 (centres undefined)

SMILES: CN1C(=O)C(CC(=O)Nc2ccc(F)cc2)N(Cc2cccs2)C1=S (centres undefined)
IC50 [4]: > 67.5 µM (inactive) | EC50 [5]: > 67.5 µM (inactive)

SMILES: CN(C)c1ccc(-c2cc3ccccc3c(=O)o2)cc1
EC50 [1]: > 67.6 µM (inactive) | EC50 [2]: > 67.6 µM (inactive)

IC50 [3]: 22.8 µM (active)
SMILES: O=Cc1cn(CC(=O)N2CCCc3ccccc32)c2ccccc12

SMILES: Cc1cccc(OCCNC(=O)c2cncc(Br)c2)c1
IC50 [4]: > 67.5 µM (inactive) | EC50 [5]: > 67.5 µM (inactive)

EC50 [6]: 0.728 µM (active)
SMILES: CCCC(c1nnnn1Cc1ccco1)N1CCN(c2cc(Cl)ccc2C)CC1 (centres undefined)

EC50 [6]: 331 µM (active)
SMILES: CCn1c(SCc2nc(-c3ccccc3)no2)nc2ccccc21

SMILES: CCCCN(C(=O)CSc1cc(C)c2ccc(OC)cc2n1)c1c(N)n(Cc2ccccc2)c(=O)[nH]c1=O
IC50 [4]: > 67.5 µM (inactive) | EC50 [5]: > 67.5 µM (inactive)

IC50 [7]: > 100 µM (active)
SMILES: COc1ccc2cc(C3(C)NC(=O)N(CC(=O)Nc4c(C)n(C)n(-c5ccccc5)c4=O)C3=O)ccc2c1 (centres undefined)

AC50 [8]: 3.98 µM (inconclusive)
SMILES: COC(=O)NC(/C=C/c1ccccc1)[C@]1(C(C)=O)CCCC1=O (some centres undefined)

EC50 [6]: 3.79 µM (active)
SMILES: CN(C)S(=O)(=O)N(CC(=O)Nc1ccc2ccccc2c1)c1ccccc1

SMILES: Cc1c(C(c2ccccc2Cl)c2c(O)oc3ccccc3c2=O)c(=O)n(-c2ccccc2)n1C (centres undefined)
IC50 [3]: 77.1 µM (active)

SMILES: Cc1oc(-c2ccc(-c3ccccc3)cc2)nc1CN(CCO)C(C)C
EC50 [1]: > 67.5 µM (inactive) | EC50 [2]: > 67.5 µM (inactive)

IC50 [7]: > 100 µM (active)
SMILES: CN(C)NC1CCS(=O)(=O)C1 (centres undefined)

SMILES: Sc1nnc(-c2ccco2)[nH]1
IC50 [9]: 11 µM (active) | IC50 [10]: 12 µM (active)

SMILES: COC(=O)[C@@H](Cc1c[nH]c2ccccc12)NC(=O)c1ccc2c(c1)OCO2
EC50 [11]: > 260 µM (inactive) | IC50 [4]: > 67.6 µM (inactive) | EC50 [5]: > 67.6 µM (inactive)

EC50 [6]: 1.96 µM (active) | AC50 [12]: inconclusive
SMILES: O=C(NCc1ccc2c(c1)OCO2)C1CC(c2cccc(Br)c2)=NO1 (centres undefined)

EC50 [11]: > 260 µM (inactive) | IC50 [7]: > 100 µM (active)
SMILES: CCOc1ccc2[nH]c(SCc3ccc(C(=O)OC)o3)nc2c1

SMILES: c1ccc(N2CC3COc4ccccc4C3=N2)cc1 (centres undefined)
EC50 [1]: > 67.4 µM (inactive) | EC50 [2]: > 67.4 µM (inactive)

SMILES: CC(/C=N/NC(=O)Cn1cnc2ccccc21)=C\c1ccccc1
EC50 [13]: > 195 µM (not active) | IC50 [4]: > 67.5 µM (inactive) | EC50 [5]: > 67.5 µM (inactive)

SMILES: O=C(CSc1nnc(-c2ccccc2O)n1Cc1ccccc1)NNC(=O)c1ccccc1O
IC50 [14]: > 94.1 µM (inactive) | AC50 [15]: 7.6 µM (active) | IC50 [3]: 130 µM (active)

SMILES: NNCc1ccccc1 [BENZYLHYDRAZINE HYDROCHLORIDE]
AC50 [8]: 7.94 µM (inconclusive)

AC50 [8]: 25.1 µM (inconclusive)
SMILES: O=c1c(O)c(-c2ccccc2)oc2ccccc12 [FLAVONOL]

AC50 [8]: 12.6 µM (inconclusive)
SMILES: COc1cc2c(cc1OC)C(=O)OC2 [METAMECONINE]

SMILES: CC1=C(/C=C/C(C)=C/C=C/C(C)=C/C(=O)O)C(C)(C)CCC1 [TRETINOIN]
AC50 [8]: 39.8 µM (inconclusive) | EC50 [16]: > 20 µM (not active) | EC50 [17]: > 20 µM (not active)
